Assay results as given in patent US20230151373A1, “CHIMERIC POLYPEPTIDE FOR REGULATING IMMUNE CELLS” (STICHTING HET NEDERLANDS KANKER INSTITUUT-ANTONI VAN …, priority 2019, published 2023).
Entries after “also recorded” stand apart in the source; their conditions may differ.

Columns and labels:
[1] = test system: primary human T cells modified with the CDK4 TCR; experiment: Cytokine release and degranulation assay, CDK4 TCR T cells with SMASh or FKBP12^F36V switch co-cultured with NKIRTIL006 tumor cells; assay type: cell-based
Description: (§1) T cells and NK cells were pretreated with the indicated concentrations of asunaprevir (MedChemExpress, #HY-14434), grazoprevir (MedChemExpress, #HY-15298), dTAG-13 (Tocris, #6605) or DMSO control in T cell media (RPMI/10% human serum/penicillin-streptomycin, 100 IU/ml IL2 and 5 ng/ml IL15) or NK cell media (RPMI/8% FCS/penicillin-streptomycin, 500 IU/ml IL2), respectively, for 24 hours before co-culture experiments. 100,000 T cells or NK cells and 100,000 of indicated tumor cells were mixed in T cell or NK cell media supplemented with golgi-plug (1:1000 dilution, BD, #51-2301KZ) and anti-LAMP1-APC (1:100 dilution, Biolegend, #328620) in the presence of indicated drugs or DMSO control in 96-well plates and incubated for 5 hours at 37° C.
(§2) After incubation, cells were washed once with PBS and stained with IR dye (Invitrogen, #L34976) at 1:400 dilution for 5 minutes at 4° C. […]
(§3) Following permeabilization, cells were washed twice with BD perm/wash buffer (#51-2091KZ) and stained with anti-IFNγ-BV421 (1:100 dilution, BD, #564791), anti-IL-2-PE-Cy7 (1:100 dilution, BD, #560707) and anti-TNFα-BV650 (1:100 dilution, Biolegend, #502938) diluted in perm/wash buffer for 20 min at 4° C. Cells were then washed twice, resuspended in 100 μl FACS buffer and analyzed directly on a Fortessa Special Order analyzer. Data were analyzed using FlowJo and Prism 7 software.

NKIRTIL006 tumor cells = experiment: 51Cr release cytotoxicity assay; assay type: cell-based, human; details: 0.5 μM dTAG-13 vs DMSO
Description: Culture media of Zap70-PD1-FKBP^F36V expressing cells is supplemented with 0.5 μM dTAG-13 PROTAC starting one day before cell sorting until 4 days before ^51Cr assay. Primary human T cells modified with the CDK4 TCR plus either the Zap70-PD1-FKBP^F36V switch or IRES-EGFP vector control were sorted on a Beckman Coulter Moflo Astrios using an 80 μM nozzle. Cells were cultured in standard T cell culturing conditions in RPMI/10 human serum/penicillin-streptomycin 100 IU/ml IL-2 and 5 ng/ml IL-15 for 7 days.
After this, cells were expanded using a rapid expansion protocol (REP). […] At day 6, culture media is refreshed with 3000 IU/ml IL-2 containing media and cultures were split into 2 every 3 days with media containing IL-2 (3000 IU/ml final concentration). At day 12, cells were switched to standard T cell culturing conditions (RPMI/10% human serum/penicillin-streptomycin/100 IU/ml IL-2 and 5 ng/ml IL-15) for 3 days, until use in ^51Cr assays.
One day prior to ^51Cr assay, T cells were pretreated with 0.5 μM dTAG-13 PROTAC or DMSO in standard T cell culturing conditions in RPMI/10% human serum/penicillin-streptomycin/100 IU/ml IL-2 and 5 ng/ml IL-15. 5×10^5 tumor cells were resuspended in 100 μl media, mixed gently with 100 ρCi ^51Cr and then incubated at 37° C. for 45 minutes. […]

NK cell line KHYG-1 = experiment: Cytokine release assay, KHYG-1 NK cells co-cultured with K562 tumor; assay type: cell-based, human; details: Zap70-PD1-FKBP12^F36V switch; 0.5 μM dTAG-13
Description: Human NK cell line KHYG-1 (DSMZ, Leibniz, Germany) was cultured in RPMI supplemented with 8% FBS and penicillin-streptomycin (100 IU/ml penicillin, 100 μg/ml streptomycin) containing 500 IU/ml IL-2 (Novartis). All cell lines were tested for mycoplasma using PCR based screening (Young et al, Nat Protoc. 2010 May; 5(5):929-34) and found negative.
24-well non treated cell culture plates were covered with 10 μg/ml retronectin (Takara, #T100B) overnight at 4° C. The next day, the retronectin solution was removed and wells were blocked with 2% BSA (Sigma-Aldrich, A9418-500g) in PBS for 30 minutes. […]
as §3

[2] = test system: primary human T cells modified with the HLA class I restricted CDK4 TCR; experiment: Cytokine release and degranulation assay, CDK4 TCR T cells co-cultured with CDK4 peptide loaded T2 cells; assay type: cell-based
Description: (§4) For use as T cell targets, T2 and CBH 5477 cells were loaded with the indicated concentrations of HLA-A*02:01 restricted mutant CDK4 peptide (ALDPHSGHFV), HLA A*02:01 restricted NY-ESO-1 peptide (SLLMWITQA), or HLA-DR1 restricted CMV peptide (KYQEFFWDANDIYRI) in IMDM for 1 hour at 37° C. Cells were then washed once and used in co-culture experiments.
as §1
(§5) After incubation, cells were washed once with PBS and stained with IR dye (Invitrogen, #L34976) at 1:400 dilution for 5 minutes at 4° C. Subsequently, cells were washed once with FACS buffer (PBS plus 0.5% BSA) and stained with anti-CD8-PerCP Cy5.5 (1:20 dilution, BD, #341050), anti-CD4 BV711 (1:50 dilution, Biolegend, #317440), anti-murine constant TCR-PE (in experiments with transduced TCRs, 1:200 dilution, BD, #553172) or cetuximab-PE (in experiments with transduced CAR construct containing truncated human EGFR reporter, 1:200 dilution, R&D Systems, #FAB9577P) for 20 minutes at 4° C. Cells were then washed once with FACS buffer and fixed with BD fixation and permeabilization solution (#51-2090KZ) for 20 minutes at 4° C.
as §3

[3] = test system: anti-CD19-CD28-CD3ζ chain CAR modified human T cells; experiment: Cytokine release and degranulation assay, anti-CD19-CD28-CD3ζ CAR T cells co-cultured with Raji or Daudi; assay type: cell-based; details: co-culture with CD19 positive Raji or Daudi; 10 μM asunaprevir
Description: as §1, §2, §3

[4] = test system: CD8 T cells modified with an NY-ESO-1 shared antigen specific TCR; experiment: Cytokine release and degranulation assay, NY-ESO-1 TCR T cells co-cultured with NY-ESO-1 peptide loaded T2 cells; assay type: cell-based, human; details: 10 μM asunaprevir
Description: as §4
T cells and NK cells were pretreated with the indicated concentrations of asunaprevir (MedChemExpress, #HY-14434), grazoprevir (MedChemExpress, #HY-15298), dTAG-13 (Tocris, #6605) or DMSO control in T cell media (RPMI/10% human serum/penicillin-streptomycin, 100 IU/ml IL2 and 5 ng/ml IL15) or NK cell media (RPMI/8% FCS/penicillin-streptomycin, 500 IU/ml IL2), respectively, for 24 hours before co-culture experiments. […]
as §3

[5] = test system: primary human T cells modified with the CDK4 TCR and Zap70-PD1-zinc finger degrons; experiment: IMiD regulation of zinc finger degron CRASH-IT switches, CDK4 TCR T cells co-cultured with NKIRTIL006 tumor cells; assay type: cell-based; details: for restoration of activity levels (cytokine production, cell surface LAMP-1) by IMiD: IKZF1-based CRASH-IT switch (IKZF1 ZF2-ZF3 degron)
Excerpt: Constructs containing various zinc finger degrons in MP71 Zap70-PD1-Zinc finger IRES-EGFP format were created using IKZF1 ZF2-3 degron containing sequence (Q13422, 141-197 aa), or IKZF3 ZF2-3 degron containing sequence (Q9UKT9, 142-198 aa), or ZFP91 ZF4-5 degron containing sequence (Q96JP5, 396-455 aa), ZNF276 ZF4-5 degron containing sequence (Q8N554, 520-579 aa), ZNF653 ZF4-5 degron containing sequence (Q96CK0, 552-611 aa), or ZNF692 ZF4-5 degron containing sequence (Q9BU19, 413-473 aa). For CRASH-IT switches encoding hybrid zinc finger degrons, the IKZF1 ZF2 beta turn sequence (FQCNQCGASFT) was replaced with beta turn sequences from ZNF653 ZF4 (LQCEICGYQCR), ZFP91 ZF4 (LQCEICGFTCR), ZNF276 ZF4 (LQCEVCGFQCR), or ZNF827 ZF1 (FQCPICGLVIK). For the CRASH-IT switch encoding ZFP91/IKZF1 hybrid zinc finger without IKZF1 ZF3 (single ZF), the IKZF1 ZF3 containing sequence (Q13422, 170-197 aa) was deleted from the Zap70-PD1-ZFP91/IKZF1 hybrid zinc finger (double ZF) construct.
as §1
as §5, with “Cells were then washed once with FACS buffer and fixed with BD fixation and permeabilization solution (#51-2090KZ) for 20 minutes at 4° C.” left out
as §3

[6] = Zap70-PD1-SMASh T cells, 10 μM asunaprevir relative to DMSO-treated cells, peptide-loaded target cells (10 nM)

Question: Which results are given for `CC[C@H](C(=O)N1CCCC[C@H]1C(=O)O[C@H](CCc1ccc(OC)c(OC)c1)c1ccccc1OCC(=O)NCCCCCCOc1cccc2c1C(=O)N(C1CCC(=O)NC1=O)C2=O)c1cc(OC)c(OC)c(OC)c1` (some centres unmarked) [dTAG-13]?
Answer: reactivation of T cell function at high drug concentrations ([1]; FKBP12^F36V/dTAG-13 based switches, high drug concentrations): suboptimal reactivation of T cell function; concentration at which activation of CRASH-IT platform peaks ([1]; small-molecule titration, Zap70-PD1-FKBP12^F36V (dTAG-13) or Zap70-PD1-SMASh (HCV NS3/4A inhibitors)): around 0.5 μM; cytotoxic activity of control vector-modified T cells (NKIRTIL006 tumor cells): unaltered; killing of 51Cr loaded NKIRTIL006 tumor cells by sorted CD8 cells with Zap70-PD1-FKBP12^F36V (NKIRTIL006 tumor cells): increased killing; suppression of NK cell cytokine production in the presence of drug (NK cell line KHYG-1): reversed

Question: With `C=C[C@@H]1C[C@]1(NC(=O)[C@@H]1C[C@@H](Oc2ncc(OC)c3ccc(Cl)cc23)CN1C(=O)[C@@H](NC(=O)OC(C)(C)C)C(C)(C)C)C(=O)NS(=O)(=O)C1CC1` [asunaprevir] as the compound, how does the “boost of CD8+ T cell activation, IFNγ” value [2, 6] read?
Answer: 8.8 fold

Question: What about the “boost of CD8+ T cell activation, IL2” value [2, 6] of the same compound?
Answer: 11.5 fold

Question: And the “boost of CD8+ T cell activation, TNFα” value [2, 6]?
Answer: 6.3 fold

Question: And the “boost of CD8+ T cell activation, cell surface LAMP1 expression” value [2, 6]?
Answer: 6.6 fold

Question: What about the “drug effect on inhibition of T cell function by Zap70-PD1-SMASh” value ([2]; primary human CD8 and CD4 T cells with Zap70-PD1-SMASh) of the same compound?
Answer: reverted; also recorded: dose dependent recovery

Question: And the “effector functions of Zap70-PD1-SMASh fusion protein-negative T cells (vector control)” value ([2]; vector control T cells, protease inhibitor)?
Answer: unaltered

Question: And the “T cell functions of CAR T cells with Zap70-PD1-SMASh upon drug addition” value [3]?
Answer: recovered

Question: What about the “functional activity of NY-ESO-1 TCR CD8 T cells with CRASH-IT switch upon drug addition” value [4] of the same compound?
Answer: restored

Question: Which “restoration of activity levels (cytokine production, cell surface LAMP-1) by IMiD” value (shortened to “restoration of activity levels”) [5] does the source give for `Nc1cccc2c1C(=O)N(C1CCC(=O)NC1=O)C2=O` (centres unmarked) [pomalidomide] here?
Answer: robustly restored

Question: Which “restoration of activity levels” value [5] does the source give for `O=C1CCC(N2C(=O)c3ccccc3C2=O)C(=O)N1` (centres unmarked) [thalidomide] here?
Answer: lesser

Question: And the “reduction of thalidomide concentration required for the same level of cytokine production (IFNγ, IL-2, or TNFα) or surface LAMP-1 expression” value ([5]; T cells expressing the chimeric degrons as compared to the parental IKZF1 ZF2-3 degron)?
Answer: around 1,000 fold

Question: For `Nc1cccc2c1CN(C1CCC(=O)NC1=O)C2=O` (centres unmarked) [lenalidomide], which “restoration of activity levels” value [5] is on record?
Answer: robustly restored
